Results as given in ChEMBL document CHEMBL1165955, “Synthesis and biological evaluation of novel (4 or 5-aryl)pyrazolyl-indoles as inhibitors of interleukin-2 inducible T-cell kinase (ITK)” (Bioorg Med Chem, 2010).
The source made the active and inactive calls. No cut-off for these calls is given here.

Experiments:
[1] = biological target: Cyclin-dependent kinase 2/cyclin E1 (Homo sapiens, UniProt P24941); experiment: (§1) Inhibition of GST-tagged full length CDK2/Cyclin E after 40 mins by IMAP assay; format: protein-complex assay
[2] = biological target: Glycogen synthase kinase-3 beta (Homo sapiens, UniProt P49841); experiment: Inhibition of GST-tagged full length GSK3-beta assessed as inhibition of ATP consumption after 60 mins by luminescence assay
[3] = biological target: Insulin receptor (Homo sapiens, UniProt P06213); experiment: Inhibition of GST-tagged recombinant INSR catalytic domain expressed in baculovirus-infected Sf21 cells after 80 mins by IMAP assay
[4] = Inhibition of histidine-tagged PKA catalytic domain after 40 mins by IMAP assay
[5] = biological target: T1, Tyrosine-protein kinase ITK/TSK (Homo sapiens, UniProt Q08881); experiment: Inhibition of GST-tagged full length recombinant ITK after 2 hrs by IMAP assay
T1 sequence (Q08881 whole entry): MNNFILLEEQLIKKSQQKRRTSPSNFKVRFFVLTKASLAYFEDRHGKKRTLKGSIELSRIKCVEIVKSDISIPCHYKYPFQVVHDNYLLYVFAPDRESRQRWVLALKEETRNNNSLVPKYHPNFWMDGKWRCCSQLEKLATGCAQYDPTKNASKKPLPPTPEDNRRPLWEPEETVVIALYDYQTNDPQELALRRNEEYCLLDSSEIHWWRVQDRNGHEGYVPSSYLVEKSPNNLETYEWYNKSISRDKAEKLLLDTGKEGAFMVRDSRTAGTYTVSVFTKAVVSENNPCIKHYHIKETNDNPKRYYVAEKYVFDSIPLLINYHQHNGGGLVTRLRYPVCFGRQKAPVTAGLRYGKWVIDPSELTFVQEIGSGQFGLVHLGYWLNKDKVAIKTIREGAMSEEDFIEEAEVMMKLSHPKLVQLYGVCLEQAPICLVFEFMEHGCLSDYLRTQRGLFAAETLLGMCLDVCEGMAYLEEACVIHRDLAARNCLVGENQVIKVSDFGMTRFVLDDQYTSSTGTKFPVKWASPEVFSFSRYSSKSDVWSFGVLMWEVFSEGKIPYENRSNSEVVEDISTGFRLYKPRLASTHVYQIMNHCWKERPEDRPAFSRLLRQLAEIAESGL

[6] = Selectivity ratio of IC50 for GST-tagged recombinant INSR catalytic domain to IC50 for GST-tagged full length recombinant ITK
[7] = biological target: RAC-alpha serine/threonine-protein kinase (Homo sapiens) (UniProt P31749); experiment: Inhibition of histidine-tagged full length AKT1 after 1 hr by IMAP assay
[8] = biological target: Cyclin-dependent kinase 2/cyclin E1 (Homo sapiens, UniProt P24864+P24941); experiment: as §1; format: protein-complex assay

Insulin receptor, sequence (P06213 28-758 limits assumed): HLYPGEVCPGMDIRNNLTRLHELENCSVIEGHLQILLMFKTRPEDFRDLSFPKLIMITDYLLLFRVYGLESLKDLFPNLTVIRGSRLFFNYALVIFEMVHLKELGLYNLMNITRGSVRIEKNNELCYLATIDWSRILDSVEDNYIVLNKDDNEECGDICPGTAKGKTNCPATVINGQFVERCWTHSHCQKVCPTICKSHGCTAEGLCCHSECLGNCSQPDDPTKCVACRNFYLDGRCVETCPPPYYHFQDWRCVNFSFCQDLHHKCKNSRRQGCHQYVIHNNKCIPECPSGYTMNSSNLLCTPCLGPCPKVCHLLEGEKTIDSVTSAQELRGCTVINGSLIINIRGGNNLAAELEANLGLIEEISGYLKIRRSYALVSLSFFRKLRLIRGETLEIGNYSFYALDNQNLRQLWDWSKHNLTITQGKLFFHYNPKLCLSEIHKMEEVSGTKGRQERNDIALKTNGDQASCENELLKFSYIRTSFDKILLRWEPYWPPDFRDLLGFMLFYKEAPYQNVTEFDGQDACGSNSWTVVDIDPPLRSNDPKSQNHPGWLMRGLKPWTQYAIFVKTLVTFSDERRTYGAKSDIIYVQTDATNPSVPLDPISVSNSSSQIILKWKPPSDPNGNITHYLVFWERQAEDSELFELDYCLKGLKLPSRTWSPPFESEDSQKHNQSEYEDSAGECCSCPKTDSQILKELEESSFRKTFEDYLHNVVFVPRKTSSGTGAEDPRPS
Insulin receptor, sequence (P06213 763-1382 limits assumed): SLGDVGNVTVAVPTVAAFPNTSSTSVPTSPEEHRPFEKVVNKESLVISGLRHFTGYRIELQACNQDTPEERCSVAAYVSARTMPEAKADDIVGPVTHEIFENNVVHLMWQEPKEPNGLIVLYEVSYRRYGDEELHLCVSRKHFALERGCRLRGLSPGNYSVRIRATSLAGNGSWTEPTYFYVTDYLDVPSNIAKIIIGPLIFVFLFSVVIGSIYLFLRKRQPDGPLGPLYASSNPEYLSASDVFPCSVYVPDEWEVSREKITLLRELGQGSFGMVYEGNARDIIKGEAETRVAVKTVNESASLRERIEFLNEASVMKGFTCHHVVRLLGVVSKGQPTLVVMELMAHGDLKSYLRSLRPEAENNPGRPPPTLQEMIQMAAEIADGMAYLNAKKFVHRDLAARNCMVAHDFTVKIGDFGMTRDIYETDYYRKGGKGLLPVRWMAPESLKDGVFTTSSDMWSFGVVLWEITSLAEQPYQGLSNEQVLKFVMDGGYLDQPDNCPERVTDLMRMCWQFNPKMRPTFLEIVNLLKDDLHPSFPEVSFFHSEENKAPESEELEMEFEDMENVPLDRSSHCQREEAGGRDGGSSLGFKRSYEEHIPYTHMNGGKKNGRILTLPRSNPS
Glycogen synthase kinase-3 beta, sequence (P49841 whole entry, the tested form may be a part): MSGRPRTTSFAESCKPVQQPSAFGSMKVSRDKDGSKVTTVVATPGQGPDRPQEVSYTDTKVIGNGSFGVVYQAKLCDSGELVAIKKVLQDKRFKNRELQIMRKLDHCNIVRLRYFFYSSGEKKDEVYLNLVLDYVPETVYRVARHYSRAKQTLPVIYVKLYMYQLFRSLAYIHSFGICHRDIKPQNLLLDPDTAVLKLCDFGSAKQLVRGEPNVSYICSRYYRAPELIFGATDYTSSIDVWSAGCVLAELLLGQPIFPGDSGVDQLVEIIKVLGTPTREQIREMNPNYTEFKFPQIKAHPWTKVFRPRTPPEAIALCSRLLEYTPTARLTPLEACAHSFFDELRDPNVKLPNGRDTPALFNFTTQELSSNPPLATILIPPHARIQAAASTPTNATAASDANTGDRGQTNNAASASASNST
RAC-alpha serine/threonine-protein kinase (Homo sapiens), sequence (P31749 whole entry): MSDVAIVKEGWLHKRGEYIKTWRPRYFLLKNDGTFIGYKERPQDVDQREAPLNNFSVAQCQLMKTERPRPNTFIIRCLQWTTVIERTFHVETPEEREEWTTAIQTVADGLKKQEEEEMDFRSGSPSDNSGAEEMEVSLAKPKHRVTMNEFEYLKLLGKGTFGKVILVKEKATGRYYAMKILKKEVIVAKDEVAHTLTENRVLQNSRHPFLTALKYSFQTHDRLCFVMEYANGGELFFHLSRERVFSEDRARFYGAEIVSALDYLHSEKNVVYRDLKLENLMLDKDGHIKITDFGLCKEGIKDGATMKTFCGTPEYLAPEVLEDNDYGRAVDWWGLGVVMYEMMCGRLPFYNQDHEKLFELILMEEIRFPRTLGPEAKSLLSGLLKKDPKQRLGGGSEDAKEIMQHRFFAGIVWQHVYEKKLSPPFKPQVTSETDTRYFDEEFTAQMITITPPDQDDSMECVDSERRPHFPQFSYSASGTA

SMILES	IC50 [1] [µM]	IC50 [3] [µM]	IC50 [5] [µM]	further results
Cn1nccc1CNC(=O)c1ccc2cc(-c3cc(-c4ccccc4)[nH]n3)[nH]c2c1			3.16	
CNC(=O)c1ccc2c(CNCc3ccncc3)c(-c3cc(Cc4ccccc4)[nH]n3)[nH]c2c1			5	
COc1ccc(CNCc2c(-c3n[nH]cc3-c3ccccc3)[nH]c3cc(C(=O)N(C)CC(C)C)ccc23)cc1			20.4	
Cn1cncc1CNC(=O)c1ccc2cc(-c3cc(-c4ccccc4)[nH]n3)[nH]c2c1			1.26	
Cc1oncc1CNC(=O)c1ccc2cc(-c3cc(-c4ccccc4)[nH]n3)[nH]c2c1			1.82	
CC(C)CN(C)C(=O)c1ccc2c(CNCCCO)c(-c3n[nH]cc3-c3ccccc3)[nH]c2c1			> 100	
COCCNC(=O)c1ccc2cc(-c3cc(-c4ccccc4)[nH]n3)[nH]c2c1			3.16	
Cn1nccc1CNC(=O)c1ccc2c(CO)c(-c3cc(Cc4ccccc4)[nH]n3)[nH]c2c1			1.58	
COCCNC(=O)c1ccc2cc(-c3n[nH]cc3-c3ccccc3)[nH]c2c1			2.51	
CC(C)CN(C)C(=O)c1ccc2c(CO)c(-c3n[nH]cc3-c3ccccc3)[nH]c2c1			> 100	

These reach a lower IC50 [5]. Values come first.

IC50 [1] [µM]	IC50 [3] [µM]	IC50 [5] [µM]	SMILES	further results
12.6	20	1	Cn1nccc1CNC(=O)c1ccc2cc(-c3cc(Cc4ccccc4)[nH]n3)[nH]c2c1	IC50 [2]: Not Active; IC50 [4]: Not Active
		0.85	CC(C)CN(C)C(=O)c1ccc2cc(-c3cc(-c4ccccc4)[nH]n3)[nH]c2c1	
0.63	7.08	0.79	Cn1cncc1CNC(=O)c1ccc2cc(-c3n[nH]cc3-c3ccccc3)[nH]c2c1	IC50 ([2]; read-out: IC50): 0.54 µM; IC50 ([4]; read-out: IC50): 10 µM
0.16	9.33	0.63	Cn1nccc1CNC(=O)c1ccc2cc(-c3n[nH]cc3-c3ccccc3)[nH]c2c1	IC50 ([2]; read-out: IC50): 1.26 µM; IC50 ([4]; read-out: IC50): 7.08 µM
0.4	5.75	0.63	Cc1oncc1CNC(=O)c1ccc2cc(-c3n[nH]cc3-c3ccccc3)[nH]c2c1	IC50 ([2]; read-out: IC50): 2.29 µM; IC50 ([4]; read-out: IC50): 5.01 µM
		0.63	Cn1cncc1CNC(=O)c1ccc2c(CN3CCOCC3)c(-c3cc(Cc4ccccc4)[nH]n3)[nH]c2c1	
31.6	5.01	0.63	Cn1cncc1CNC(=O)c1ccc2cc(-c3cc(Cc4ccccc4)[nH]n3)[nH]c2c1	IC50 [2]: Not Active; IC50 [4]: Not Active
	> 100	0.56	CC(C)CN(C)C(=O)c1ccc2cc(-c3cc(Cc4ccccc4)[nH]n3)[nH]c2c1	inhibition [7]: inactive; IC50 [8]: Not Active; IC50 [2]: Not Active; IC50 [4]: Not Active
		0.5	CC(C)CN(C)C(=O)c1ccc2c(CNCc3ccc(F)cc3)c(-c3cc(Cc4ccccc4)[nH]n3)[nH]c2c1	
3.16	> 10	0.33	CC(C)CN(C)C(=O)c1ccc2cc(-c3n[nH]cc3-c3ccccc3)[nH]c2c1	IC50 ([2]; read-out: IC50): 6.76 µM; Ratio IC50 [6]: > 30; IC50 [4]: Not Active
